Where a name gives a salt, the structure may show the parent alone.
Key:
Type in all cases: biochemical
[1] = biological target: human JAK1 (a.a. 837-1142) catalytic domain (Homo sapiens, UniProt P23458); experiment: In vitro JAK kinase assay (HTRF), JAK1; conditions: JAK enzyme assay at 1 mM ATP
Procedure: (§1) The catalytic activity of JAK1, JAK2 or JAK3 was assayed by measuring the phosphorylation of a biotinylated peptide. The phosphorylated peptide was detected by homogenous time resolved fluorescence (HTRF). […] Reactions were carried out at room temperature for 1 hour and then stopped with 20 μL 45 mM EDTA, 300 nM SA-APC, 6 nM Eu-Py20 in assay buffer (Perkin Elmer, Boston, Mass.). Binding to the Europium labeled antibody took place for 40 minutes and HTRF signal was measured on a Fusion plate reader (Perkin Elmer, Boston, Mass.).

[2] = system: human JAK1 (a.a. 837-1142) catalytic domain; experiment: In vitro JAK kinase assay (HTRF), JAK1; conditions: ratio of IC50 values at 1 mM ATP
Procedure: as §1

[3] = biological target: human JAK2 (a.a. 828-1132) catalytic domain (Homo sapiens (Human), UniProt O60674); experiment: In vitro JAK kinase assay (HTRF), JAK2; conditions: JAK enzyme assay at 1 mM ATP
Procedure: as §1

human JAK2 (a.a. 828-1132) catalytic domain, sequence (O60674 828-1132): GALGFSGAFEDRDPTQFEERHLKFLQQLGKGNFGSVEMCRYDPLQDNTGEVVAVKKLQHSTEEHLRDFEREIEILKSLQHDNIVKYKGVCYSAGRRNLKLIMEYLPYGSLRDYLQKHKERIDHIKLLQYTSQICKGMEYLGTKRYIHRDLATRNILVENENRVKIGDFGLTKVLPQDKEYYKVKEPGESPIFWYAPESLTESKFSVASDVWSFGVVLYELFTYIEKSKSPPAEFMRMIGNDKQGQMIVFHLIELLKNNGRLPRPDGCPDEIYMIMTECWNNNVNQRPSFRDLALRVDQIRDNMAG

Compound	IC50 [1] [nM]	JAK2/JAK1 [2]	IC50 [3] [nM]
Cc1n[nH]cc1-c1cnn(C2(CC#N)CN(c3cnc(C(=O)NC(C)C)cn3)C2)c1 [Example 2, 5-[3-(Cyanomethyl)-3-(3′-methyl-1H,1′H-4,4′-bipyrazol-1-yl)azetidin-1-yl]-N-isopropylpyrazine-2-carboxamide trifluoroacetate]	< 300	>10	300 to 1000
Cc1n[nH]cc1-c1cn(C2(CC#N)CN(c3cnc(C(=O)NC(C)C)cn3)C2)nc1C [Example 6, 5-[3-(Cyanomethyl)-3-(3,3′-dimethyl-1H,1′H-4,4′-bipyrazol-1-yl)azetidin-1-yl]-N-isopropylpyrazine-2-carboxamide trifluoroacetate]	< 300	>10	> 1000
CCc1n[nH]cc1-c1cnn(C2(CC#N)CN(c3cnc(C(=O)N[C@@H](C)C(F)(F)F)cn3)C2)c1 [Example 11, 5-[3-(Cyanomethyl)-3-(3′-ethyl-1H,1′H-4,4′-bipyrazol-1-yl)azetidin-1-yl]-N-[(1S)-2,2,2-trifluoro-1-methylethyl]pyrazine-2-carboxamide trifluoroacetate]	300 to 1000	–	> 1000
Cc1n[nH]cc1-c1cnn(C2(CC#N)CN(c3cc(F)c(C(=O)N[C@@H](C)C(F)(F)F)cc3F)C2)c1 [Example 4, 4-[3-(Cyanomethyl)-3-(3′-methyl-1H,1′H-4,4′-bipyrazol-1-yl)azetidin-1-yl]-2,5-difluoro-N-[(1S)-2,2,2-trifluoro-1-methylethyl]benzamide trifluoroacetate]	< 300	–	–
Cc1n[nH]cc1-c1cnn(C2(CC#N)CN(c3ccc(C(=O)NC(C)C)cc3)C2)c1 [Example 3, 4-[3-(Cyanomethyl)-3-(3′-methyl-1H,1′H-4,4′-bipyrazol-1-yl)azetidin-1-yl]-N-isopropylbenzamide trifluoroacetate]	< 300	>10	> 1000
Cc1[nH]ncc1-c1cnn(C2(CC#N)CN(c3cnc(C(=O)N[C@@H](C)C(F)(F)F)cn3)C2)c1 [Example 1, 5-[3-(Cyanomethyl)-3-(3′-methyl-1H,1′H-4,4′-bipyrazol-1-yl)azetidin-1-yl]-N-[(1S)-2,2,2-trifluoro-1-methylethyl]pyrazine-2-carboxamide trifluoroacetate]	< 300	>10	> 700
Cc1n[nH]c(C)c1-c1cnn(C2(CC#N)CN(c3cnc(C(=O)N[C@@H](C)C(F)(F)F)cn3)C2)c1 [Example 9, 5-[3-(Cyanomethyl)-3-(3′,5′-dimethyl-1H,1′H-4,4′-bipyrazol-1-yl)azetidin-1-yl]-N-[(1S)-2,2,2-trifluoro-1-methylethyl]pyrazine-2-carboxamide trifluoroacetate]	< 300	>10	300 to 1000
Cc1n[nH]c(C)c1-c1cnn(C2(CC#N)CN(c3cnc(C(=O)NC(C)C)cn3)C2)c1 [Example 8, 5-[3-(Cyanomethyl)-3-(3′,5′-dimethyl-1H,1′H-4,4′-bipyrazol-1-yl)azetidin-1-yl]-N-isopropylpyrazine-2-carboxamide]	< 300	–	–
Cc1n[nH]cc1-c1cn(C2(CC#N)CN(c3cc(F)c(C(=O)N[C@@H](C)C(F)(F)F)cc3F)C2)nc1CO [Example 13, 4-{3-(Cyanomethyl)-3-[3-(hydroxymethyl)-3′-methyl-1H,1′H-4,4′-bipyrazol-1-yl]azetidin-1-yl}-2,5-difluoro-N-[(1S)-2,2,2-trifluoro-1-methylethyl]benzamide]	< 300	>10	> 1000
Cc1nn(C2(CC#N)CN(c3cnc(C(=O)NC(C)C)cn3)C2)cc1-c1cn[nH]c1 [Example 10, 5-[3-(Cyanomethyl)-3-(3-methyl-1H,1′H-4,4′-bipyrazol-1-yl)azetidin-1-yl]-N-isopropylpyrazine-2-carboxamide trifluoroacetate]	300 to 1000	–	> 1000
C[C@H](NC(=O)c1cc(F)c(N2CC(CC#N)(n3cc(-c4cn[nH]c4)cn3)C2)cc1F)C(F)(F)F [Example 5, 4-[3-(1H,1′H-4,4′-Bipyrazol-1-yl)-3-(cyanomethyl)azetidin-1-yl]-2,5-difluoro-N-[(1S)-2,2,2-trifluoro-1-methylethyl]benzamide trifluoroacetate]	300 to 1000	>10	> 1000
C[C@H](NC(=O)c1cc(F)c(N2CC(CC#N)(n3cc(-c4c[nH]nc4CO)cn3)C2)cc1F)C(F)(F)F [Example 12, 4-{3-(Cyanomethyl)-3-[3′-(hydroxymethyl)-1H,1′H-4,4′-bipyrazol-1-yl]azetidin-1-yl}-2,5-difluoro-N-[(1S)-2,2,2-trifluoro-1-methylethyl]benzamide trifluoroacetate]	300 to 1000	–	> 1000
